# Experimental data reported in US8012975B2, “Antitumoral analogs of ET-743” (Pharma Mar, S.A., priority 2000, dated 2011).
# Where two headings read alike, the source gives them in different places.
# What was measured:
# A-549 [1] = system: A-549
# DU-145 [2] = system: DU-145
# A-549 [3] = test: Cytotoxic activity IC50, A-549; conditions: Homo sapiens, A549, read-out: CYTOTOXIC ACTIVITIY IC50 (μM) A-549, A-549
# DU-145 [4] = test: Cytotoxic activity IC50, DU-145; conditions: Homo sapiens, DU-145, read-out: CYTOTOXIC ACTIVITIY IC50 (μM) DU-145, DU-145
# in vitro = conditions: African green monkey
SMILES,IC50 (P-388),IC50 (HT-29),IC50 (MEL-28),IC50 (A-549 [1]),IC50 (DU-145 [2]),IC50 (A-549 [3]),IC50 (DU-145 [4]),IC50 (in vitro)
C=CCOC(=O)Oc1c(C)c2c(c3c1CC1[C@H]4c5c(cc(C)c(OC)c5O)C[C@@H]([C@H](O)N1[C@H]3CNC(=O)/C=C/c1ccccc1)N4C)OCO2 (some centres unmarked),0.1 nM,0.1 nM,0.1 nM,0.1 nM,0.1 nM,,,
CCC(=O)N[C@@H](C)C(=O)NC[C@H]1c2c(c(OC(C)=O)c(C)c3c2OCO3)CC2[C@H]3c4c(cc(C)c(OC)c4O)C[C@@H]([C@H](O)N21)N3C (some centres unmarked) [drawing 138],0.1 nM,0.1 nM,0.1 nM,0.1 nM,0.1 nM,,,
COc1c(C)cc2c(c1O)[C@@H]1C3Cc4c(OC(C)=O)c(C)c5c(c4[C@H](CNC(=O)[C@H](C)NC(=O)C(F)(F)F)N3[C@@H](O)[C@H](C2)N1C)OCO5 (some centres unmarked) [drawing 110],0.1 nM,0.1 nM,0.1 nM,0.1 nM,0.1 nM,,,
C/C=C/C(=O)NC[C@H]1c2c(c(OC(C)=O)c(C)c3c2OCO3)CC2[C@H]3c4c(cc(C)c(OC)c4O)C[C@@H]([C@H](C#N)N21)N3C (some centres unmarked),0.1 nM,0.1 nM,0.1 nM,,,0.0008 µM,0.0008 µM,
C/C=C(\OC(C)=O)C1=C(C2=COCO2)[C@H](CNC(=O)/C=C/c2ccccc2)N2C(C1)[C@H]1c3c(cc(C)c(OC)c3O)C[C@@H]([C@@H]2C#N)N1C (some centres unmarked),0.1 nM,0.1 nM,0.1 nM,0.1 nM,0.1 nM,,,
CCC(=O)NC[C@H]1c2c(c(OC(C)=O)c(C)c3c2OCO3)CC2[C@H]3c4c(cc(C)c(OC)c4O)C[C@@H]([C@H](O)N21)N3C (some centres unmarked) [drawing 125],0.1 nM,0.1 nM,0.1 nM,0.1 nM,0.1 nM,,,
COc1c(C)cc2c(c1O)[C@@H]1C3Cc4c(OC(C)=O)c(C)c5c(c4[C@H](CNC(=O)CCc4ccccc4)N3[C@@H](C#N)[C@H](C2)N1C)OCO5 (some centres unmarked),0.1 nM,0.1 nM,0.1 nM,0.1 nM,0.1 nM,,,
COc1c(C)cc2c(c1O)[C@@H]1C3Cc4c(OC(C)=O)c(C)c5c(c4[C@H](CNC(=O)[C@H](C)NC(=O)/C=C/c4ccccc4)N3[C@@H](C#N)[C@H](C2)N1C)OCO5 (some centres unmarked),,0.1 nM,,,,,,
COC1=C(C)C(=O)C2=C(C1=O)[C@H](CNC(=O)C(C)N=CSNc1ccccc1)N1C(C2)[C@H]2c3c(cc(C)c(OC)c3O)C[C@@H]([C@@H]1C#N)N2C (some centres unmarked),,,,,,,,18 nM
COc1c(C)cc2c(c1O)[C@@H]1C3Cc4c(OC(C)=O)c(C)c5c(c4[C@H](CNC(=O)/C=C/c4cccc(C(F)(F)F)c4)N3[C@@H](C#N)[C@H](C2)N1C)OCO5 (some centres unmarked),0.1 nM,0.1 nM,0.1 nM,0.1 nM,0.1 nM,,,
COc1c(C)cc2c(c1O)[C@@H]1C3Cc4c(OC(C)=O)c(C)c5c(c4[C@H](CNC(=O)[C@H](C)NC(=O)CCc4ccccc4)N3[C@@H](O)[C@H](C2)N1C)OCO5 (some centres unmarked) [drawing 135],0.1 nM,0.1 nM,0.1 nM,0.1 nM,0.1 nM,,,
C=CCOC(=O)Oc1c(C)c2c(c3c1CC1[C@H]4c5c(cc(C)c(OC)c5O)C[C@@H]([C@H](O)N1[C@H]3CNC(=O)CCc1ccccc1)N4C)OCO2 (some centres unmarked),0.1 nM,0.1 nM,0.1 nM,0.1 nM,0.1 nM,,,
C/C=C/C(=O)NC[C@H]1c2c(c(OC(C)=O)c(C)c3c2OCO3)CC2[C@H]3c4c(cc(C)c(OC)c4O)C[C@@H]([C@H](O)N21)N3C (some centres unmarked),0.1 nM,0.1 nM,0.1 nM,,,0.0008 µM,0.0008 µM,
CCCC(=O)OC[C@H]1c2c(c(OC(C)=O)c(C)c3c2OCO3)CC2[C@H]3c4c(cc(C)c(OC)c4O)C[C@@H]([C@H](O)N21)N3C (some centres unmarked) [drawing 156],0.1 nM,0.1 nM,0.1 nM,0.1 nM,0.1 nM,,,
COc1c(C)cc2c(c1O)[C@@H]1C3Cc4c(OC(C)=O)c(C)c5c(c4[C@H](COC(=O)CCc4ccccc4)N3[C@@H](C#N)[C@H](C2)N1C)OCO5 (some centres unmarked),0.1 nM,0.1 nM,0.1 nM,0.1 nM,0.1 nM,,,
C=CCOC(=O)Oc1c(C)c2c(c3c1CC1[C@H]4c5c(cc(C)c(OC)c5O)C[C@@H]([C@H](C#N)N1[C@H]3CNC(=O)/C=C/c1ccccc1)N4C)OCO2 (some centres unmarked),0.1 nM,0.1 nM,0.1 nM,0.1 nM,0.1 nM,,,
COc1c(C)cc2c(c1O)[C@@H]1C3Cc4c(OC(C)=O)c(C)c5c(c4[C@H](CNC(=O)[C@@H](C)NC(=O)CC(C)C)N3[C@@H](C#N)[C@H](C2)N1C)OCO5 (some centres unmarked),0.1 nM,0.1 nM,0.1 nM,0.1 nM,0.1 nM,,,
